Measurements from US20090105270A1, “Kinase inhibition and anticancer therapy” (priority 2007, published 2009).

Assays:
NEK11(h) = NEK11(h) (Homo sapiens, UniProt Q8NG66); test: Upstate kinase activity inhibition assay NEK11(h); conditions: 40 min, read-out: percentage of enzyme activity that remains
IKKβ(h) = IKKβ(h) (Homo sapiens, UniProt O14920); test: Upstate kinase activity inhibition assay IKKβ(h); conditions: 40 min, read-out: percentage of enzyme activity that remains
HIPK3(h) = HIPK3(h) (Homo sapiens, UniProt Q9H422); test: Upstate kinase activity inhibition assay HIPK3(h); conditions: 40 min, read-out: percentage of enzyme activity that remains
cKit(D816V)(h) = molecular target: T1, cKit(D816V)(h) (Homo sapiens, UniProt P10721, D816V); test: Upstate kinase activity inhibition assay cKit(D816V)(h); format: biochemical; conditions: 40 min, read-out: percentage of enzyme activity that remains
T1 construct: purchased Upstate (KinaseProfiler service)

PKBβ(h) = PKBβ(h) (Homo sapiens, UniProt P31751); test: Upstate kinase activity inhibition assay PKBβ(h); conditions: 40 min, read-out: percentage of enzyme activity that remains
WNK2(h) = molecular target: T2, WNK2(h) (Homo sapiens, UniProt Q9Y3S1); test: Upstate kinase activity inhibition assay WNK2(h); format: biochemical; conditions: 40 min; read-out: percentage of enzyme activity that remains
T2 construct: purchased Upstate (KinaseProfiler service)

KDR(h) = KDR(h) (Homo sapiens, UniProt P35968); test: Upstate kinase activity inhibition assay KDR(h); conditions: 40 min, read-out: percentage of enzyme activity that remains
TSSK1(h) = TSSK1(h) (Homo sapiens, UniProt Q9BXA7); test: Upstate kinase activity inhibition assay TSSK1(h); conditions: 40 min, read-out: percentage of enzyme activity that remains
Rsk3(h) = Rsk3(h) (Homo sapiens, UniProt Q15349); test: Upstate kinase activity inhibition assay Rsk3(h); conditions: 40 min, read-out: percentage of enzyme activity that remains
Axl(h) = molecular target: T3, Axl(h) (Homo sapiens, UniProt P30530); test: Upstate kinase activity inhibition assay Axl(h); format: biochemical; conditions: 40 min; read-out: percentage of enzyme activity that remains
T3 construct: purchased Upstate (KinaseProfiler service)

Pyk2(h) = molecular target: T4, Pyk2(h) (Homo sapiens, UniProt Q14289); test: Upstate kinase activity inhibition assay Pyk2(h); format: biochemical; conditions: 40 min; read-out: percentage of enzyme activity that remains
T4 construct: purchased Upstate (KinaseProfiler service)

EphA4(h) = EphA4(h) (Homo sapiens, UniProt P54764); test: Upstate kinase activity inhibition assay EphA4(h); conditions: 40 min, read-out: percentage of enzyme activity that remains
JAK2(h) = molecular target: T5, JAK2(h) (Homo sapiens, UniProt O60674); test: Upstate kinase activity inhibition assay JAK2(h); format: biochemical
T5 construct: purchased Upstate (KinaseProfiler service)

Rse(h) = molecular target: T6, Rse(h) (Homo sapiens, UniProt Q06418); test: Upstate kinase activity inhibition assay Rse(h); format: biochemical; conditions: 40 min; read-out: percentage of enzyme activity that remains
T6 construct: purchased Upstate (KinaseProfiler service)

Flt3(h) = Flt3(h) (Homo sapiens, UniProt P36888); test: Upstate kinase activity inhibition assay Flt3(h); conditions: 40 min, read-out: percentage of enzyme activity that remains
cSRC(h) = cSRC(h) (Homo sapiens, UniProt P12931); test: Upstate kinase activity inhibition assay cSRC(h); format: biochemical; conditions: 40 min; read-out: percentage of enzyme activity that remains
PKCβI(h) = molecular target: T7, PKCβI(h) (Homo sapiens, UniProt P05771); test: Upstate kinase activity inhibition assay PKCβI(h); format: biochemical; conditions: 40 min; read-out: percentage of enzyme activity that remains
T7 construct: purchased Upstate (KinaseProfiler service)

Syk(h) = Syk(h) (Homo sapiens, UniProt P43405); test: Upstate kinase activity inhibition assay Syk(h)
Pim-1(h) = Pim-1(h) (Homo sapiens, UniProt P11309); test: Upstate kinase activity inhibition assay Pim-1(h); format: biochemical; conditions: 40 min; read-out: percentage of enzyme activity that remains
IRAK4(h) = molecular target: T8, IRAK4(h) (Homo sapiens, UniProt Q9NWZ3); test: Upstate kinase activity inhibition assay IRAK4(h); format: biochemical; conditions: 4 μM Compound E
T8 construct: purchased Upstate (KinaseProfiler service)

p70S6K(h) = molecular target: T9, p70S6K(h) (Homo sapiens, UniProt P23443); test: Upstate kinase activity inhibition assay p70S6K(h); format: biochemical; conditions: 40 min; read-out: percentage of enzyme activity that remains
T9 construct: purchased Upstate (KinaseProfiler service)

SGK2(h) = SGK2(h) (Homo sapiens, UniProt Q9HBY8); test: Upstate kinase activity inhibition assay SGK2(h); conditions: 40 min, read-out: percentage of enzyme activity that remains
MAPK1(h) = MAPK1(h) (Homo sapiens, UniProt P27361); test: Upstate kinase activity inhibition assay MAPK1(h); conditions: 40 min, read-out: percentage of enzyme activity that remains
PKCγ(h) = molecular target: T10, PKCγ(h) (Homo sapiens, UniProt P05129); test: Upstate kinase activity inhibition assay PKCγ(h); format: biochemical; conditions: 40 min; read-out: percentage of enzyme activity that remains
T10 construct: purchased Upstate (KinaseProfiler service)

MKK7β(h) = MKK7β(h) (Homo sapiens, UniProt O14733); test: Upstate kinase activity inhibition assay MKK7β(h)
SAPK3(h) = molecular target: T11, SAPK3(h) (Homo sapiens, UniProt P53778); test: Upstate kinase activity inhibition assay SAPK3(h); format: biochemical; conditions: 40 min; read-out: percentage of enzyme activity that remains
T11 construct: purchased Upstate (KinaseProfiler service)

LIMK1(h) = molecular target: T12, LIMK1(h) (Homo sapiens, UniProt P53667); test: Upstate kinase activity inhibition assay LIMK1(h); format: biochemical; conditions: 40 min; read-out: percentage of enzyme activity that remains
T12 construct: purchased Upstate (KinaseProfiler service)

PKCθ(h) = PKCθ(h) (Homo sapiens, UniProt Q04759); test: Upstate kinase activity inhibition assay PKCθ(h); conditions: 40 min, read-out: percentage of enzyme activity that remains
Hck(h) = molecular target: T13, Hck(h) (Homo sapiens, UniProt P08631); test: Upstate kinase activity inhibition assay Hck(h); format: biochemical; conditions: 40 min; read-out: percentage of enzyme activity that remains
T13 construct: purchased Upstate (KinaseProfiler service)

ROCK-I(h) = ROCK-I(h) (Homo sapiens, UniProt Q13464); test: Upstate kinase activity inhibition assay ROCK-I(h); conditions: 40 min, read-out: percentage of enzyme activity that remains
ROCK-I(h), sequence (Q13464 whole entry): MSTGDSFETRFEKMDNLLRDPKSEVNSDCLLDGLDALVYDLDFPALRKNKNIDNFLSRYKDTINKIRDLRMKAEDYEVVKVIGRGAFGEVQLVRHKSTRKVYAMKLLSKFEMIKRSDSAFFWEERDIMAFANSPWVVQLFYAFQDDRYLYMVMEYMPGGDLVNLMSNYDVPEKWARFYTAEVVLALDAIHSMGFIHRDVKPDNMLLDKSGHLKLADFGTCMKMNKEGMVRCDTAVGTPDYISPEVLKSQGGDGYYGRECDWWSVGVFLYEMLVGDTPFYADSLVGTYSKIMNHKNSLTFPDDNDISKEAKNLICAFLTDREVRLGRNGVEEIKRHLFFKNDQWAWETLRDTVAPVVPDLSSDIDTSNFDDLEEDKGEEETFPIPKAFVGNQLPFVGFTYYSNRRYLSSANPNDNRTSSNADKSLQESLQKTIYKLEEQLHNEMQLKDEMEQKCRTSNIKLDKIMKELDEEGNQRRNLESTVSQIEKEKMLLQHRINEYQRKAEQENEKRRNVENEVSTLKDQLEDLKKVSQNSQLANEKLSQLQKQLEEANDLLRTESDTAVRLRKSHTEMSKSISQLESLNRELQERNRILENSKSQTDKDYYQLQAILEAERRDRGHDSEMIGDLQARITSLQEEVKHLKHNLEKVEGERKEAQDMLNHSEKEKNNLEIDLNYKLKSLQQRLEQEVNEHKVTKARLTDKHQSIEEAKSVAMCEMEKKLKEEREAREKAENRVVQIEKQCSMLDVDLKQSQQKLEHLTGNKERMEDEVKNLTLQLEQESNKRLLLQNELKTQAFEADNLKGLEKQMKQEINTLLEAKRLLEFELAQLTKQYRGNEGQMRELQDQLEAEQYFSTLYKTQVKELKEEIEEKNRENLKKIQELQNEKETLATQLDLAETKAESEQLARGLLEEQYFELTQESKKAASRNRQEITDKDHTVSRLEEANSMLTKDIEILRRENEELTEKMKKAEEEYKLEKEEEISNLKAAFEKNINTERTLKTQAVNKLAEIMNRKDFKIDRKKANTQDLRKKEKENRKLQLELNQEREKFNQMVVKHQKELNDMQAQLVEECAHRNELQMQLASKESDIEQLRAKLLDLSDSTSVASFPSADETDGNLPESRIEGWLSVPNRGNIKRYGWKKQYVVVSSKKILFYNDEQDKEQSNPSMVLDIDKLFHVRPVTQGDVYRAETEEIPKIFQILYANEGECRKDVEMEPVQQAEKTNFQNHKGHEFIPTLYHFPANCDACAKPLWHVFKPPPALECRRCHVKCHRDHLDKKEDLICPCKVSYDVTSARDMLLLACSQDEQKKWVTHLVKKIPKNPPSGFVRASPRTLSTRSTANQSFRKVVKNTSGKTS

HIPK3(h), sequence (Q9H422 whole entry): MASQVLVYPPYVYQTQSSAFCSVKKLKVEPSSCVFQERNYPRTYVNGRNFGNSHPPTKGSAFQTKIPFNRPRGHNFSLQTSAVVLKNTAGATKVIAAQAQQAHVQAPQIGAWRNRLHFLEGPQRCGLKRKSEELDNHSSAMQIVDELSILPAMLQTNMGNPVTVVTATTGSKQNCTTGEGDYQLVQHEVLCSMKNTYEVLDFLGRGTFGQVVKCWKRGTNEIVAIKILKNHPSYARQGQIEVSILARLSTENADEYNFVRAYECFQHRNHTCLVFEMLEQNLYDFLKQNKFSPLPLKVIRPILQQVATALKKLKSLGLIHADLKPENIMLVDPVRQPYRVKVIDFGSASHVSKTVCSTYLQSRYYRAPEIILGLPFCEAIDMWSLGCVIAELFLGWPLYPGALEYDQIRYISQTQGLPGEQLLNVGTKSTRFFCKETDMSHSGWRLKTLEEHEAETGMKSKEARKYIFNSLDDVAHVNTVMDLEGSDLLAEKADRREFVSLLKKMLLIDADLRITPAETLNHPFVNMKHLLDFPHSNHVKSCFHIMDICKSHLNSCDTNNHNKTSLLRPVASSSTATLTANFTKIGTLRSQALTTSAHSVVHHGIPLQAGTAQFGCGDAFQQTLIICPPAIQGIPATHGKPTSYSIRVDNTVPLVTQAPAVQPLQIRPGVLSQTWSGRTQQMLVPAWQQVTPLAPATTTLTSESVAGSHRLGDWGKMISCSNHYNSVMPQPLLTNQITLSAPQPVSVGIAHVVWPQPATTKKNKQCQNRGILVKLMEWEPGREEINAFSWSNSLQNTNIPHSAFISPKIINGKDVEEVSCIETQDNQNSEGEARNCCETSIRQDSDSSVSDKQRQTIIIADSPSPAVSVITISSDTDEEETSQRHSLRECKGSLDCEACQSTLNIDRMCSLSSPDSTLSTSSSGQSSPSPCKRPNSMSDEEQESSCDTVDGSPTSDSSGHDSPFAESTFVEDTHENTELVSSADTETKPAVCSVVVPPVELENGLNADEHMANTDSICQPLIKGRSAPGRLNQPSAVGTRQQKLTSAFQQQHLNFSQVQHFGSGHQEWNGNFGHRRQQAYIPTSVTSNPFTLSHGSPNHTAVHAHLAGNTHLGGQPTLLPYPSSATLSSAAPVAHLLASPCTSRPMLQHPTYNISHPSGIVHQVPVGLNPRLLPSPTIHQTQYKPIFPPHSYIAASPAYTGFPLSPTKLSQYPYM
IKKβ(h), sequence (O14920 whole entry): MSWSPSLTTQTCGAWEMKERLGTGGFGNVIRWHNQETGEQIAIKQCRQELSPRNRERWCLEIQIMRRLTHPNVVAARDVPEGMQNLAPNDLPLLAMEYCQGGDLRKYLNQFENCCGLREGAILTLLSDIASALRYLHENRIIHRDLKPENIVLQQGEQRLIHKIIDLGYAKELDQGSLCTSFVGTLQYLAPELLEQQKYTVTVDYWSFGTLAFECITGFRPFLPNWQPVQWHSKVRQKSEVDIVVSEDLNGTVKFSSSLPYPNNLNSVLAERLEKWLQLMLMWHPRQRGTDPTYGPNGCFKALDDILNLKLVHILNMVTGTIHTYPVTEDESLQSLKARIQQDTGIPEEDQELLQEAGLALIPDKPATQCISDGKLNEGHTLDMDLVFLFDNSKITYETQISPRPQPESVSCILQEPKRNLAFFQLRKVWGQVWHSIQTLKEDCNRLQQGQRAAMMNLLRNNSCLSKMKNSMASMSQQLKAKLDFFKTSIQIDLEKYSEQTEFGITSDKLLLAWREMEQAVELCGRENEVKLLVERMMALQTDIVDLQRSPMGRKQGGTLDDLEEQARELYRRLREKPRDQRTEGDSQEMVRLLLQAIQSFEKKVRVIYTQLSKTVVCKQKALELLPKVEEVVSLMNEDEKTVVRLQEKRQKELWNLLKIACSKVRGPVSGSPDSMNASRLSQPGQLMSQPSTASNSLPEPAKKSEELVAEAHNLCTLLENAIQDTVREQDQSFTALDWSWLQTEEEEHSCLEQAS
Pim-1(h), sequence (P11309 whole entry): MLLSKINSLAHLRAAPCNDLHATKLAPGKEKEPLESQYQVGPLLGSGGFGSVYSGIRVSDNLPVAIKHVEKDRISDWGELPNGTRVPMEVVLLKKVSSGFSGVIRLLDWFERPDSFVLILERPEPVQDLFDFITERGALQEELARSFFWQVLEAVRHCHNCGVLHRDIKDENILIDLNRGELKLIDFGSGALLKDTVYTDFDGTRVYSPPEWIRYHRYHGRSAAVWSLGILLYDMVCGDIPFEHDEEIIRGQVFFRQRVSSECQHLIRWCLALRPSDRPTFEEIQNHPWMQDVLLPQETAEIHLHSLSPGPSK
SGK2(h), sequence (Q9HBY8 whole entry): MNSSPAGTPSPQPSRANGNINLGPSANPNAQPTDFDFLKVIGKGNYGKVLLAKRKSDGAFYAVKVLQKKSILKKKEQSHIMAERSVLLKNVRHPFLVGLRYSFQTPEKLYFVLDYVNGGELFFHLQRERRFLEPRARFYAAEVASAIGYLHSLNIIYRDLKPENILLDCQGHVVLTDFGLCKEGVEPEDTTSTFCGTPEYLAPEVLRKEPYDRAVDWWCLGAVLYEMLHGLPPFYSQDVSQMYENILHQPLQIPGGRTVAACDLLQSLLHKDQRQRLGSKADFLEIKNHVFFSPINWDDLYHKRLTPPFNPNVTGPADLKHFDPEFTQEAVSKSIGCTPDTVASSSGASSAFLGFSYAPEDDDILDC
T11 sequence (P53778 whole entry): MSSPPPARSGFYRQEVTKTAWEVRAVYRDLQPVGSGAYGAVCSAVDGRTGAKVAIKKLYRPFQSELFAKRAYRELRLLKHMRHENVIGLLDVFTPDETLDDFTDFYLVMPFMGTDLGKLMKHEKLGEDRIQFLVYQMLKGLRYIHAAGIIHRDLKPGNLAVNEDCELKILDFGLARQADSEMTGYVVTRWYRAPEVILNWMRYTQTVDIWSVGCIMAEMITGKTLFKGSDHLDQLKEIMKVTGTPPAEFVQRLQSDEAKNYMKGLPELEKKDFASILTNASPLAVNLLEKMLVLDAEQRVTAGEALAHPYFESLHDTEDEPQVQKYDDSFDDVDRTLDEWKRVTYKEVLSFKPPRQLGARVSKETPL
PKBβ(h), sequence (P31751 whole entry): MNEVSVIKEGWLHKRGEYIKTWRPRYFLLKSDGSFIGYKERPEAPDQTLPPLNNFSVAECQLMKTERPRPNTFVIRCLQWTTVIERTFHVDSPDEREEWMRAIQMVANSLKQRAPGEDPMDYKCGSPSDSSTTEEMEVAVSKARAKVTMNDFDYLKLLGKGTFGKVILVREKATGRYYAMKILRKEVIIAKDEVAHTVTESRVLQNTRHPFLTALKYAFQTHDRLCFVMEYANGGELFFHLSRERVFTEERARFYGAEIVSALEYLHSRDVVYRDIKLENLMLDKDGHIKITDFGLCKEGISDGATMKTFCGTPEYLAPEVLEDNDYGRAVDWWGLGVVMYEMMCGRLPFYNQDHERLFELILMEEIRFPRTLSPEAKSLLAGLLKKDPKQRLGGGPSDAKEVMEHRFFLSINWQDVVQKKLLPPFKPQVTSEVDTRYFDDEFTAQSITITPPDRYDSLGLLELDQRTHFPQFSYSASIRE

`Cc1cc(Nc2cc(N3CCN(C)CC3)nc(Sc3ccc(NC(=O)C4CC4)cc3)n2)n[nH]1` [Compound E, Cyclopropane carboxylic acid {4-[4-(4-methyl-piperazin-1-yl)-6-(5-methyl-2H-pyrazol-3-ylamino)-pyrimidin-2-ylsulphanyl]-phenyl}-amide] showed a remaining activity at 0.2 µM (NEK11(h)) of 106%, a remaining activity at 4 µM (NEK11(h)) of 106% and a remaining activity at 0.2 µM (IKKβ(h)) of 106%. For the same compound, the remaining activity at 4 µM (IKKβ(h)) was 117%, the remaining activity at 0.2 µM (HIPK3(h)) was 112% and the remaining activity at 4 µM (HIPK3(h)) was 95%. For the same compound, the remaining activity at 0.2 µM (cKit(D816V)(h)) was 89%, the remaining activity at 4 µM (cKit(D816V)(h)) was 79% and the remaining activity at 0.2 µM (PKBβ(h)) was 105%. The remaining activity at 4 µM (PKBβ(h)) was 85%, the remaining activity at 0.2 µM (WNK2(h)) was 107% and the remaining activity at 4 µM (WNK2(h)) was 90%. For the same compound, the remaining activity at 0.2 µM (KDR(h)) was 87%, the remaining activity at 4 µM (KDR(h)) was 20% and the remaining activity at 0.2 µM (TSSK1(h)) was 122%. It also gave a remaining activity at 4 µM (TSSK1(h)) of 99%, a remaining activity at 0.2 µM (Rsk3(h)) of 96% and a remaining activity at 4 µM (Rsk3(h)) of 60%. For the same compound, the remaining activity at 0.2 µM (Axl(h)) was 79%, the remaining activity at 4 µM (Axl(h)) was 19% and the remaining activity at 0.2 µM (Pyk2(h)) was 100%. The remaining activity at 4 µM (Pyk2(h)) was 59%, the remaining activity at 0.2 µM (EphA4(h)) was 103% and the remaining activity at 4 µM (EphA4(h)) was 61%. The “percentage of enzyme activity that remains” value (JAK2(h); 0.2 μM Compound E) was 75%, the “percentage of enzyme activity that remains” value (JAK2(h); 4 μM Compound E) was 19% and the remaining activity at 0.2 µM (Rse(h)) was 94%. For the same compound, the remaining activity at 4 µM (Rse(h)) was 77%, the remaining activity at 0.2 µM (Flt3(h)) was 21% and the remaining activity at 4 µM (Flt3(h)) was 7%. It also gave a remaining activity at 0.2 µM (cSRC(h)) of 87%, a remaining activity at 4 µM (cSRC(h)) of 25% and a remaining activity at 0.2 µM (PKCβI(h)) of 100%. For the same compound, the remaining activity at 4 µM (PKCβI(h)) was 98%, the “percentage of enzyme activity that remains” value (Syk(h); 0.2 μM Compound E) was 113% and the “percentage of enzyme activity that remains” value (Syk(h); 4 μM Compound E) was 63%. The remaining activity at 0.2 µM (Pim-1(h)) was 102%, the remaining activity at 4 µM (Pim-1(h)) was 103% and the “percentage of enzyme activity that remains” value (IRAK4(h)) was 90%. It also gave a remaining activity at 4 µM (p70S6K(h)) of 92%, a remaining activity at 0.2 µM (SGK2(h)) of 102% and a remaining activity at 4 µM (SGK2(h)) of 102%. For the same compound, the remaining activity at 0.2 µM (MAPK1(h)) was 94%, the remaining activity at 4 µM (MAPK1(h)) was 93% and the remaining activity at 0.2 µM (PKCγ(h)) was 96%. For the same compound, the remaining activity at 4 µM (PKCγ(h)) was 82%, the “percentage of enzyme activity that remains” value (MKK7β(h); 0.2 μM Compound E) was 91% and the “percentage of enzyme activity that remains” value (MKK7β(h); 4 μM Compound E) was 97%. The remaining activity at 0.2 µM (SAPK3(h)) was 132%, the remaining activity at 4 µM (SAPK3(h)) was 115% and the remaining activity at 0.2 µM (LIMK1(h)) was 71%. The remaining activity at 4 µM (LIMK1(h)) was 15%, the remaining activity at 0.2 µM (PKCθ(h)) was 25% and the remaining activity at 4 µM (PKCθ(h)) was 35%. The remaining activity at 0.2 µM (Hck(h)) was 98%, the remaining activity at 4 µM (Hck(h)) was 45% and the remaining activity at 0.2 µM (ROCK-I(h)) was 99%. It also gave a remaining activity at 4 µM (ROCK-I(h)) of 91%.
